Values quoted from earlier work in PubChem BioAssay AID1259409 (Chemical Carcinogenesis Research Information System (CCRIS), 2018).

Tested on: rodent chemically induced tumor inhibition, incidence and multiplicity
Test: CCRIS tumor inhibitor studies
Details: Dose [Inhibitor]: 0, 500 MG/KG BW/D FOR 24 WK BEGINNING 14 WK POST CARCINOGEN FIRST DOSE (STUDY DURATION: 38 WK), Route [Inhibitor]: ORAL, Species: RAT, Strain/Sex: WISTAR/MALE, FEMALE

In the case of `COc1c(N2C[C@@H]3CCCN[C@@H]3C2)c(F)cc2c(=O)c(C(=O)O)cn(C3CC3)c12`, the outcome (Carcinogen: N-BUTYL-N-(4-HYDROXYBUTYL)NITROSAMINE, 3817-11-6, Target Tissue: Type of Lesion: LIVER: TUMOR, Dose [Carcinogen]: 0.02% IN DRINKING WATER FOR FIRST 9 WK) is given as 0%, 1/18 (6%), -100%, not significant, the “tumour outcome (control, treated, inhibition, significance)” value (Carcinogen: N-BUTYL-N-(4-HYDROXYBUTYL)NITROSAMINE, 3817-11-6, Target Tissue: Type of Lesion: URINARY BLADDER: TUMOR, Dose [Carcinogen]: 0.02% IN DRINKING WATER FOR FIRST 9 WK) is given as 13/18 (72%), 10/18 (56%), 22%, not significant and the “tumour outcome (control, treated, inhibition, significance)” value (Carcinogen: N-ETHYL-N-NITROSOUREA, 759-73-9, Target Tissue: Type of Lesion: AUDITORY SEBACEOUS GLAND: TUMOR, Dose [Carcinogen]: 20 MG/KG BW 1/WK FOR FIRST 10 WK) is given as 9/26 (35%), 4/26 (15%), 57%, not significant. For the same molecule, the “tumour outcome (control, treated, inhibition, significance)” value (Carcinogen: N-ETHYL-N-NITROSOUREA, 759-73-9, Target Tissue: Type of Lesion: HEART: TUMOR, Dose [Carcinogen]: 20 MG/KG BW 1/WK FOR FIRST 10 WK) was 1/26 (4%), 0%, 100%, not significant, the “tumour outcome (control, treated, inhibition, significance)” value (Carcinogen: N-ETHYL-N-NITROSOUREA, 759-73-9, Target Tissue: Type of Lesion: HEMATOLYMPHORETICULAR: TUMOR, Dose [Carcinogen]: 20 MG/KG BW 1/WK FOR FIRST 10 WK) was 15/26 (58%), 13/26 (50%), 14%, not significant and the “tumour outcome (control, treated, inhibition, significance)” value (Carcinogen: N-ETHYL-N-NITROSOUREA, 759-73-9, Target Tissue: Type of Lesion: LARGE INTESTINE: TUMOR, Dose [Carcinogen]: 20 MG/KG BW 1/WK FOR FIRST 10 WK) was 9/26 (35%), 7/26 (27%), 23%, not significant. The outcome (Carcinogen: N-ETHYL-N-NITROSOUREA, 759-73-9, Target Tissue: Type of Lesion: LIVER: TUMOR, Dose [Carcinogen]: 20 MG/KG BW 1/WK FOR FIRST 10 WK) was 0%, 0%, 0%, not significant, the “tumour outcome (control, treated, inhibition, significance)” value (Carcinogen: N-ETHYL-N-NITROSOUREA, 759-73-9, Target Tissue: Type of Lesion: MAMMARY GLAND: TUMOR, Dose [Carcinogen]: 20 MG/KG BW 1/WK FOR FIRST 10 WK) was 5/26 (19%), 2/26 (8%), 58%, not significant and the outcome (Carcinogen: N-ETHYL-N-NITROSOUREA, 759-73-9, Target Tissue: Type of Lesion: MESENTERY: TUMOR, Dose [Carcinogen]: 20 MG/KG BW 1/WK FOR FIRST 10 WK) was 0%, 1/26 (4%), -100%, not significant. For the same molecule, the outcome (Carcinogen: N-ETHYL-N-NITROSOUREA, 759-73-9, Target Tissue: Type of Lesion: NASAL CAVITY: TUMOR, Dose [Carcinogen]: 20 MG/KG BW 1/WK FOR FIRST 10 WK) was 0%, 0%, 0%, not significant, the outcome (Carcinogen: N-ETHYL-N-NITROSOUREA, 759-73-9, Target Tissue: Type of Lesion: PANCREAS: TUMOR, Dose [Carcinogen]: 20 MG/KG BW 1/WK FOR FIRST 10 WK) was 0%, 0%, 0%, not significant and the “tumour outcome (control, treated, inhibition, significance)” value (Carcinogen: N-ETHYL-N-NITROSOUREA, 759-73-9, Target Tissue: Type of Lesion: SEMINAL VESICLES: TUMOR, Dose [Carcinogen]: 20 MG/KG BW 1/WK FOR FIRST 10 WK) was 1/26 (4%), 0%, 100%, not significant. For the same molecule, the “tumour outcome (control, treated, inhibition, significance)” value (Carcinogen: N-ETHYL-N-NITROSOUREA, 759-73-9, Target Tissue: Type of Lesion: SKIN: TUMOR, Dose [Carcinogen]: 20 MG/KG BW 1/WK FOR FIRST 10 WK) was 9/26 (35%), 10/26 (39%), -11%, not significant and the outcome (Carcinogen: N-ETHYL-N-NITROSOUREA, 759-73-9, Target Tissue: Type of Lesion: SUBCUTIS: TUMOR, Dose [Carcinogen]: 20 MG/KG BW 1/WK FOR FIRST 10 WK) was 0%, 0%, 0%, not significant.
